Assay results as given in US4372948A, “Derivative of saccharide and physiologically active agent containing the same” (Kureha Kagaku Kogyo Kabushiki Kaisha, priority 1980, dated 1983).

Columns and labels:
[1] = test system: pyrexia (Saccharomyces cerevisiae); assay: Anti-pyrexia activity (yeast-induced); assay type: in vivo; details: Rattus norvegicus, oral, read-out: Rate of inhibiting pyrexia (I.R.)
Procedure, shortened: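 Rats (n=6/group) received subcutaneous 20% Saccharomyces cerevisiae suspension, fasted 10 h, then dosed orally with 1000 mg/kg compound in distilled water. Rectal temperature was tracked at set intervals and the lowest value taken; inhibition rate computed against non-yeast and yeast-only control temperatures.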

[2] = test system: cotton pellet granuloma; assay: Anti-granuloma activity (cotton pellet); assay type: in vivo, rat; details: Rattus norvegicus, po, 192 h, 7 days, read-out: I.R. against cotton pellet edema
Procedure, shortened: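 Rats (6/group) implanted dorsally with two 30±1 mg cotton pellets; compounds given orally in distilled water at 1000 mg/kg/day once daily for 7 days. Granuloma excised on day 8 and dry weight measured; value is % inhibition of granuloma proliferation.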

[3] = test system: pseudo-escaping reaction to tail pressure; assay: Analgetic activity against mechanical stimulation of pressure; assay type: in vivo, mouse (ICR female); details: oral, 1000 mg/kg
[4] = test system: blood pressure; assay: Anti-hypertension activity (reduction of blood pressure); assay type: in vivo, rat (spontaneous hypertension); details: oral, 300 mg/kg
Procedure, shortened: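 Spontaneously hypertensive rats dosed orally at 300 mg/kg in distilled water. Blood pressure measured at 3 and 6 h. Activity taken as change from the value just before dosing.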

[5] = test system: total cholesterol; assay: Anti-hyperlipemia activity, total cholesterol in blood; assay type: in vivo, rabbit (Japanese white male); details: oral, 300 mg/kg once; for Reduction of cholesterol level after 3 hrs.: negative = raising
Procedure, shortened: (§1)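 Male Japanese white rabbits fed 1% cholesterol diet for 3 months received compound once orally at 300 mg/kg in water. Ear-vein blood: cholesterol by enzymatic method, beta-lipoprotein by colorimetry; values are change from predose at 3 or 6 h.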

[6] = test system: exudation; assay: Anti-exudation activity (air pouch, croton oil); assay type: in vivo, rat; details: Rattus norvegicus, po, 144 h, 5 days, read-out: I.R. against exudation
Procedure, shortened: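 Rats, 6 per group, given subcutaneous dorsal air pouch injected with 0.5 ml sesame oil containing 1% croton oil. Compounds dosed orally in distilled water at 1000 mg/kg/day for five days; pouch exudate volume measured on day 6 and expressed as percent inhibition of exudation.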

[7] = test system: Sarcoma-180; assay: Anti-tumour activity against Sarcoma-180; assay type: in vivo, mouse (ICR-JCL); details: Mus musculus, Sarcoma-180, po, 600 h, 10 times every other day, tumour weight on 25th day, read-out: Antitumour activity, inhibiting rate (I.R.)
Procedure, shortened: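 ICR-JCL mice were given 1×10^6 Sarcoma-180 cells axillary; from 24 hours, compounds in saline were dosed orally at 500 mg/kg/time, 10 times every other day. Tumour nodes were weighed on day 25; inhibition rate = (1-T/C)×100(%) versus untreated tumour-bearing mice.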

[8] = in vivo; details: mouse, in vivo, po, mice, 7 days observation, read-out: LD50, acute oral toxicity
[9] = test system: beta-lipoprotein; assay: Anti-hyperlipemia activity, beta-lipoprotein in blood; assay type: in vivo, rabbit (Japanese white male); details: oral, 300 mg/kg once
Procedure, shortened: as §1

[10] = test system: carrageenin edema; assay: Anti-Carrageenin edema activity; assay type: in vivo, rat; details: Rattus norvegicus, po, 1000 mg/kg once, read-out: I.R. against carrageenin edema
Procedure, shortened: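 Rats (10 per group) given compound orally once at 1000 mg/kg in distilled water, then 0.1 ml 1% carrageenin injected into right hind foot pad. Foot pad thickness measured at intervals; inhibition rate (%) = (1−T/C)×100 versus carrageenin-only animals.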

[11] = test system: level of blood sugar; assay: Anti-hyperglycemia activity (reduction of blood sugar level); assay type: in vivo, rat (Wistar, streptozotocin); details: oral, 300 mg/kg
Procedure, shortened: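 Streptozotocin-diabetic Wistar rats (60 mg/kg i.p., relapsed hyperglycemia after insulin) given compounds orally at 300 mg/kg in distilled water. Blood sugar measured in samples taken 3 and 6 h post-dose.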

[12] = test system: acetic acid writhing; assay: Analgetic activity against chemical stimulation of acetic acid (writhing); assay type: in vivo, mouse (ICR female); details: Mus musculus, po, 30 min before 0.6% acetic acid, read-out: I.R. of writhing
From the text: Rate of inhibition (I.R.) (%)=(1-T/C)×100
T represents the average number of writhing of the group of mice administered with the present compound and injected with acetic acid, and C represents the average number of writhing of the group of mice only injected with acetic acid (control).

| Structure (SMILES) | inhibition in vivo at 1000 mg/kg [1] | inhibition in vivo at 1000 mg/kg/day [2] | Pseudo-escapting reaction pressure [3] | Pseudo-escapting reaction time [3] | Reduced level of blood pressure after 3 hrs. [4] | Reduced level of blood pressure after 6 hrs. [4] | Reduction of cholesterol level after 3 hrs. [5] | Reduction of cholesterol level after 6 hrs. [5] | inhibition in vivo at 1000 mg/kg/day [6] | inhibition in vivo at 500 mg/kg [7] | LD50 at 168 h [8] | Reduction of beta-lipoprotein level after 3 hrs. [9] | Reduction of beta-lipoprotein level after 6 hrs. [9] | inhibition in vivo at 1000 mg/kg [10] | Reduced level of blood sugar after 3 hrs. [11] | Reduced level of blood sugar after 6 hrs. [11] | inhibition in vivo at 1000 mg/kg [12] |
| --- | --- | --- | --- | --- | --- | --- | --- | --- | --- | --- | --- | --- | --- | --- | --- | --- | --- |
| O=C(Oc1ccccc1)c1ccc(NC2OC[C@@H](O)[C@H](O)[C@H]2O)cc1 (stereo partly drawn) [Compound 8, phenyl p-aminobenzoate-N-D-xyloside] | 47% | 5.6% | 80 mmHg | 39 s | 18 mm Hg | 20 mm Hg | 6 mg/dL | 46 mg/dL | 15.7% | 53% | 13500 mg/kg | 128 mg/dL | 144 mg/dL | 21.4% | 106 mg/dL | 140 mg/dL | 20% |
| NC(=O)c1ccc(NC2O[C@H](CO)[C@@H](O)[C@H](O)[C@@H]2O)cc1 (stereo partly drawn) [Compound 4, p-aminobenzoic acid amide-N-D-mannoside] | 28% | 14.9% | 96 mmHg | 45 s | 14 mm Hg | 20 mm Hg | 0 mg/dL | 46 mg/dL | 5.7% | 42% | 13600 mg/kg | 123 mg/dL | 135 mg/dL | 12.1% | 110 mg/dL | 116 mg/dL | 41% |
| O=C(OC1CCCCC1)c1ccccc1NC1C[C@H](O)[C@H](O)CO1 (stereo partly drawn) [Compound 16, cyclohexyl o-aminobenzoate-N-D-deoxyriboside] | 48% | 6.5% | 87 mmHg | 39 s | 20 mm Hg | 20 mm Hg | 0 mg/dL | 33 mg/dL | 5.7% | 37% | 8800 mg/kg | 104 mg/dL | 110 mg/dL | 18.6% | 125 mg/dL | 140 mg/dL | 26% |
| O=C(OC1CCCCC1)c1ccc(NC2O[C@H](CO)[C@@H](O[C@@H]3O[C@H](CO)[C@@H](O)[C@H](O)[C@H]3O)[C@H](O)[C@H]2O)cc1 (stereo partly shown) [Compound 19, cyclohexyl p-aminobenzoate-N-cellobioside] | 37% | 5.5% | 82 mmHg | 37 s | 20 mm Hg | 21 mm Hg | 3 mg/dL | 41 mg/dL | 24.6% | 51% | 14600 mg/kg | 135 mg/dL | 148 mg/dL | 5.5% | 101 mg/dL | 113 mg/dL | 24% |
| C[C@@H]1OC(Nc2cccc(C(=O)OCC3CCCCC3)c2)[C@@H](O)[C@H](O)[C@@H]1O (stereo partly drawn) [Compound 22, hexahydrobenzyl m-aminobenzoate-N-L-fucoside] | 29% | 15.7% | 75 mmHg | 37 s | 15 mm Hg | 21 mm Hg | 6 mg/dL | 38 mg/dL | 7.7% | 35% | 10100 mg/kg | 125 mg/dL | 133 mg/dL | 24.6% | 133 mg/dL | 150 mg/dL | 19% |
| O=C(Oc1ccccc1)c1ccc(NC2O[C@H](CO)[C@@H](O[C@@H]3O[C@H](CO)[C@@H](O)[C@H](O)[C@H]3O)[C@H](O)[C@H]2O)cc1 (stereo partly shown) [Compound 9, phenyl p-aminobenzoate-N-cellobioside] | 32% | 7.9% | 86 mmHg | 38 s | 25 mm Hg | 28 mm Hg | -1 mg/dL | 40 mg/dL | 18.8% | 40% | > 15000 mg/kg | 126 mg/dL | 136 mg/dL | 3.7% | 85 mg/dL | 121 mg/dL | 28% |
| O=C(OCC1CCCCC1)c1ccccc1NC1O[C@H](CO)[C@@H](O[C@@H]2O[C@H](CO)[C@H](O)[C@H](O)[C@H]2O)[C@H](O)[C@H]1O (stereo partly shown) [Compound 21, hexahydrobenzyl o-aminobenzoate-N-lactoside] | 28% | 7.2% | 84 mmHg | 40 s | 16 mm Hg | 17 mm Hg | 4 mg/dL | 43 mg/dL | 20.7% | 44% | > 15000 mg/kg | 96 mg/dL | 109 mg/dL | 19.4% | 95 mg/dL | 102 mg/dL | 28% |
| O=C(OCc1ccccc1)c1ccc(NC2O[C@H](CO)[C@@H](O)[C@H](O)[C@H]2O)cc1 (stereo partly drawn) [Compound 14, benzyl p-aminobenzoate-N-D-glucoside] | 56% | 23.3% | 92 mmHg | 44 s | 24 mm Hg | 24 mm Hg | 3 mg/dL | 38 mg/dL | 6.9% | 42% | 11700 mg/kg | 143 mg/dL | 146 mg/dL | 5.1% | 65 mg/dL | 93 mg/dL | 39% |
